Reference: patent publication US9879243B2, “Culture medium for cell growth and transfection” (LIFE TECHNOLOGIES CORPORATION, priority 2001, dated 2018)

Experiments:
293 cells [1] = experiment: β-galactosidase expression after transfection (pCMV-SPORT-β-gal, LIPOFECTAMINE 2000) of 293 cells in monolayer culture, 24-well plates; type: cell-based, human; details: Table 8, replacement compounds 25 μM in test media, 24 hrs post-transfection
Description: When cultured in suspension, cells were split to 3×10^5 viable cells per ml at each passage. On the week of transfection cells were seeded at 3×10^5 viable cells per ml. After ˜48 hrs of growth (day 2) cells were vortexed for 30 seconds and counted and appropriate volumes used for transfection as described in procedures below.
In addition, the base media comprises 2.4 g/L NaHCO3, 2.98 g/L Hepes, 4 mM L-glutamine and 3 ml/L PLURONIC F-68 (Invitrogen Corp., Carlsbad, Calif.).
The osmolarity is adjusted to from about 275-310 mOsm, preferably about 280 mOsm and the pH is adjusted to from about 7.0 to about 7.45 preferably about 7.4 respectively.
Three wells were set up for each treatment. A volume of media corresponding to 3×10^6 viable cells was centrifuged. The supernatant was removed and the cells re-suspended in 600 μl test media. Each well of a 24 well plate received 200 μl of the re-suspended cells.
To prepare the nucleic acid for the transfection experiments, 93 μl test media+3 μl DNA+24 μl LIPOFECTAMINE 2000 were combined in a microfuge tube and complexed for 30 minutes. A 40 μl aliquot of complex was added to each well. 250 μl test media was added to each well five hours after addition of complex. The final cell concentration was 1×10^6 viable cells per well; the final DNA concentration was 1 μg per 1×10^6 viable cells and the final LIPOFECTAMINE 2000 concentration was 8 μl per 1×10^6 viable cells.
24 hrs post-transfection, samples were collected for β-galactosidase quantitation. The contents of duplicate wells were pooled (i.e. ˜2×10^6 cells for the assay) for each sample and transferred to a microfuge tube. The cells were centrifuged, the supernatant was removed and the cells were re-suspended in 1 ml of D-PBS. The cells were pelleted a second time and re-suspended in 1 ml of D-PBS. The samples were then stored at −70° C. Prior to the assay for β-galactosidase, samples were freeze-thawed a total of five times.
293 cells were grown in monolayer culture in the presence of the various replacement compounds indicated and transfection experiments performed as described above. The results are shown in Table 8 and the values are β-galactosidase activity expressed as nanograms of β-galactosidase per 2×10^6 cells. A comparison was made between the transfection efficiency of DNA complexes formed in D-MEM medium and DNA complexes formed in test medium. […]
For cells transfected in 24-well plates, cells densities used were 1×10^6 viable cells per well.

293 cells [2] = experiment: Effect of replacement compounds on the growth of 293 cells in 293 SFM without transferrin, three passages; type: cell-based, human; details: third passage, control 5 μg/mL human holo-transferrin
Description: Semi-confluent adherent cultures of 293 Cells (ATCC, CRL 1573) are readily adapted to suspension culture. The cells are first detached with a solution of Trypsin-EDTA (0.05% Trypsin, 0.53 mM Na4EDTA), and then resuspended in conventional medium supplemented with 10% FBS to inhibit the trypsin. The resuspended cells are centrifuged at 200×g for five minutes.
The initial seeding density of the 293 cells after conversion to suspension culture is 1×10^6 cells/mL. The cells are shaken on a rotary shaker at 150 rpm in a 37° C. incubator equilibrated with 8% CO2-92% air. […] Because 293 cells have a tendency to aggregate, the cells can be vortexed vigorously for approximately 45 seconds to obtain a predominantly single cell suspension at the time of passaging and counting. After several passages in suspension culture, the maximum achievable density can be determined.
(§1) For replacement compound evaluation, 293 cells were established in 125 mL shaker flasks at an initial viable seeding density of 2×10^5 cells/mL in a final volume of 20 mL. All cultures were maintained at 37° C. in humidified air containing 8% CO2. To eliminate transferrin carry-over effects, cells were subcultured at 4 day intervals for a total of three passages. At each subculturing, cells were seeded at a density of 2×10^5 cells/mL. Positive control cultures contained 5 μg/mL human holo-transferrin while negative control cultures were established in the absence of either transferrin or replacement compound. Replacement compound stocks were prepared at 0.1M-0.2M in ddH2O and solubilized when necessary using 5N NaOH or HCl. Iron complexes were established using 0.2 M replacement compound and iron stocks mixed 1:1 (v/v) and incubated for 5-10 minutes at 22° C. All solutions containing replacement compounds were filter sterilized using a 0.22 μm Millex-GV filter prior to addition to transferrin and serum-free media.
Except where noted, replacement compounds were evaluated either alone or in combination with ferric chloride or ferrous sulfate at 25 μM, 50 μM and 100 μM. When used in combination, the replacement compounds were used in equimolar concentration with iron ions. Values in Table 4 represent the mean percentage of control growth for duplicate cultures determined at the third passage.
When added to the medium formulation uncomplexed, the replacement compound is listed alone, when added as a complex with a transition metal, the source of the transition metal is listed with the replacement compound.

CHO cells = experiment: Effect of replacement compounds on the growth of CHO cells in CD CHO medium without transferrin, three passages; type: cell-based, Chinese hamster; details: third passage
Description: as §1, with “The ability of replacement compounds to support cellular growth in the absence of transferrin was evaluated using CHO cells maintained in CD CHO medium (Invitrogen Corporation, Carlsbad, Calif., the formulation of which is described in WO 98/08934). Stock cultures containing 5 μg/mL human holo-transferrin were prepared in CD CHO medium. For” for “For”, “CHO” for “293”, “1×10^5” for “2×10^5”, “passages.” for “passages. At each subculturing, cells were seeded at a density of 2×10^5 cells/mL.”, “0.2M” for “0.2 M”
Except where noted, replacement compounds were evaluated either alone or in combination with ferric chloride or ferrous sulfate at 25 μM, 50 μM and 100 μM. Values in the table represent the mean percentage of control growth for duplicate cultures determined at the third passage.
The ability of various replacement compounds to substitute for transferrin in the culture of CHO cells was determined. When added to the medium formulation un-complexed, the replacement compound is listed alone, when added as a complex with a transition metal, the source of the transition metal is listed with the metal binding compound.

Sp2/0 cells = experiment: Effect of replacement compounds on the growth of Sp2/0 cells in CD Hybridoma medium without transferrin, three passages; type: cell-based; details: third passage
Description: The ability of replacement compounds to support cellular growth in the absence of transferrin was evaluated using Sp2/0 cells maintained in CD Hybridoma medium (Invitrogen Corporation, Carlsbad, Calif.).
Stock cultures containing 5 μg/mL human holo-transferrin were prepared in CD Hybridoma medium. For replacement compound evaluation, Sp2/0 cells were established at an initial viable cell density of 0.5×10^5 cells/mL in stationary culture using 75 cm^2 tissue culture flasks in a final volume of 20 mL. All cultures were maintained at 37° C. in humidified air containing 8% CO2. To eliminate transferrin carry-over effects, cells were subcultured at the same seeding density at 4 day intervals for a total of three passages. Positive control cultures contained 5 μg/mL human holo-transferrin while negative control cultures were established in the absence of either transferrin or replacement compound. Replacement compound stocks were prepared at 0.1M-0.2M in ddH2O and solubilized when necessary using 5N NaOH or HCl. Iron complexes were established using 0.2M replacement compound and iron stocks mixed 1:1 (v/v) and incubated for 5-10 minutes at 22° C. All solutions containing replacement compounds were filter sterilized using a 0.22 μm Millex-GV filter prior to addition to transferrin and serum-free media.
Except where otherwise noted, replacement compounds were evaluated either alone or in combination with ferric chloride or ferrous sulfate at 25 μM, 50 μM and 100 μM. Values in the table represent the mean percentage of control growth for duplicate cultures determined at the third passage.
When added to the medium formulation un-complexed, the replacement compound is listed alone, when added as a complex with a transition metal, the source of the transition metal is listed with the replacement compound.

[3] = 25 μM, iron equimolar where combined
[4] = 25 μM, control 5 μg/mL human holo-transferrin

[Cl][Fe]([Cl])[Cl].c1ccc(Nc2ccccn2)nc1 [2,2-Dipyridylamine•Ferric Chloride]
β-galactosidase activity; D-MEM used for complexing, Test media to re-suspend cells (293 cells [1]): 347 nanograms of β-galactosidase per 2×10^6 cells
β-galactosidase activity; Test Media used for complexing and to re-suspend cells (293 cells [1]): 459 nanograms of β-galactosidase per 2×10^6 cells
mean percentage of control growth (293 cells [2]; [3]): 118 percentage of control growth
mean percentage of control growth (293 cells [2]; 50 μM): 96 percentage of control growth
mean percentage of control growth (293 cells [2]; 100 μM): 101 percentage of control growth
mean percentage of control growth (CHO cells; [4]): 40 percentage of control growth
mean percentage of control growth (CHO cells; 50 μM): 48 percentage of control growth
mean percentage of control growth (CHO cells; 100 μM): 65 percentage of control growth

Cc1occc(=O)c1O [3-Hydroxy-2-Methyl-4-Pyrone (Maltol), 3-Hydroxy-2-Methyl-4-Pyrone]
β-galactosidase activity; D-MEM used for complexing, Test media to re-suspend cells (293 cells [1]): 103 nanograms of β-galactosidase per 2×10^6 cells
β-galactosidase activity; Test Media used for complexing and to re-suspend cells (293 cells [1]): 52 nanograms of β-galactosidase per 2×10^6 cells
mean percentage of control growth (293 cells [2]; [3]): 0 percentage of control growth
mean percentage of control growth (293 cells [2]; 50 μM): 28 percentage of control growth
mean percentage of control growth (293 cells [2]; 100 μM): 81 percentage of control growth
mean percentage of control growth (Sp2/0 cells; [4]): 0 percentage of control growth
mean percentage of control growth (Sp2/0 cells; 50 μM): 0 percentage of control growth
mean percentage of control growth (Sp2/0 cells; 100 μM): 0 percentage of control growth

O=S(=O)([O-])[O-].[Fe+2].[O-][n+]1cccc(O)c1 [3-Hydroxypyridine-N-Oxide•Ferrous Sulfate]
β-galactosidase activity; D-MEM used for complexing, Test media to re-suspend cells (293 cells [1]): 176 nanograms of β-galactosidase per 2×10^6 cells
β-galactosidase activity; Test Media used for complexing and to re-suspend cells (293 cells [1]): 317 nanograms of β-galactosidase per 2×10^6 cells
mean percentage of control growth (293 cells [2]; [3]): 104 percentage of control growth
mean percentage of control growth (293 cells [2]; 50 μM): 58 percentage of control growth
mean percentage of control growth (293 cells [2]; 100 μM): 0 percentage of control growth

[Cl][Fe]([Cl])[Cl] [Ferric Chloride, reference compound]
β-galactosidase activity; D-MEM used for complexing, Test media to re-suspend cells (293 cells [1]): 18 nanograms of β-galactosidase per 2×10^6 cells
β-galactosidase activity; Test Media used for complexing and to re-suspend cells (293 cells [1]): 0 nanograms of β-galactosidase per 2×10^6 cells
mean percentage of control growth (293 cells [2]; [3]): 87 percentage of control growth
mean percentage of control growth (293 cells [2]; 50 μM): 91 percentage of control growth
mean percentage of control growth (293 cells [2]; 100 μM): 109 percentage of control growth
mean percentage of control growth (Sp2/0 cells; [4]): 55 percentage of control growth
mean percentage of control growth (Sp2/0 cells; 50 μM): 73 percentage of control growth
mean percentage of control growth (Sp2/0 cells; 100 μM): 74 percentage of control growth
mean percentage of control growth (CHO cells; [4]): 56 percentage of control growth
mean percentage of control growth (CHO cells; 50 μM): 85 percentage of control growth
mean percentage of control growth (CHO cells; 100 μM): 101 percentage of control growth

O=S(=O)([O-])[O-].[Fe+2] [Ferrous Sulfate, reference compound]
β-galactosidase activity; D-MEM used for complexing, Test media to re-suspend cells (293 cells [1]): 258 nanograms of β-galactosidase per 2×10^6 cells
β-galactosidase activity; Test Media used for complexing and to re-suspend cells (293 cells [1]): 406 nanograms of β-galactosidase per 2×10^6 cells
mean percentage of control growth (293 cells [2]; [3]): 71 percentage of control growth
mean percentage of control growth (293 cells [2]; 50 μM): 60 percentage of control growth
mean percentage of control growth (293 cells [2]; 100 μM): 41 percentage of control growth
mean percentage of control growth (Sp2/0 cells; [4]): 91 percentage of control growth
mean percentage of control growth (Sp2/0 cells; 50 μM): 103 percentage of control growth
mean percentage of control growth (Sp2/0 cells; 100 μM): 94 percentage of control growth
mean percentage of control growth (CHO cells; [4]): 88 percentage of control growth
mean percentage of control growth (CHO cells; 50 μM): 79 percentage of control growth
mean percentage of control growth (CHO cells; 100 μM): 38 percentage of control growth

Diethylenetriamine Penta-Acetic Acid•Ferric Chloride
β-galactosidase activity; D-MEM used for complexing, Test media to re-suspend cells (293 cells [1]): 131 nanograms of β-galactosidase per 2×10^6 cells
β-galactosidase activity; Test Media used for complexing and to re-suspend cells (293 cells [1]): 574 nanograms of β-galactosidase per 2×10^6 cells
mean percentage of control growth (293 cells [2]; [3]): 79 percentage of control growth
mean percentage of control growth (293 cells [2]; 50 μM): 96 percentage of control growth
mean percentage of control growth (293 cells [2]; 100 μM): 102 percentage of control growth

Human Transferrin (as control): human transferrin used as control replacement compound in test media
β-galactosidase activity; D-MEM used for complexing, Test media to re-suspend cells (293 cells [1]): 326 nanograms of β-galactosidase per 2×10^6 cells
β-galactosidase activity; Test Media used for complexing and to re-suspend cells (293 cells [1]): 3279 nanograms of β-galactosidase per 2×10^6 cells
